# Measured values: patent publication US20100137144A1, “METHOD AND MEANS FOR DETECTING AND/OR QUANTIFYING HIERARCHICAL MOLECULAR CHANGE OF A CELL IN RESPONSE TO AN EXTERNAL STIMULUS” (Eppendorf Array Technologies S.A., priority 2005, published 2010)
# “Also recorded” adds a separate entry of the source.
# How the values were obtained:
# [1] = test system: AP1 (c-Jun), STAT1, Elk-1, p53, c-Myc, ATF2, NFATc1 and MEF2 in U937 cells; assay: TF Chip MAPK microarray: activated transcription factors in stimulated U937 cells; type: cell-based, human; details: 1000 U/ml
# Method: They are stimulated at 10.10^6 cells/75 cm^2 flask with IFNγ (1000 U/ml) for 15 min and 24 h or left untreated.
# The activation of transcription factors is monitored on microarrays using the TF Chip MAPK kit from Eppendorf (Germany). The arrays contain double stranded DNA molecules as capture probes for the TF binding. The TF Chip MAPK allows the assay of AP1 (c-Jun), STAT1, Elk-1, p53, c-Myc, ATF2, NFATc1 and MEF2.
# A blocking step is performed in a Blocking Solution (TF Chip MAPK kit, Eppendorf, Germany) for 1 h at RT, followed by a washing step using the Washing Buffer A (TF Chip MAPK kit, Eppendorf, Germany). The nuclear extracts are prepared as described in WO 01/73115. They are diluted in the Sample Dilution Solution and Binding Solution (TF Chip MAPK kit, Eppendorf, Germany) and contacted with the arrays. Incubation is performed for one hour at room temperature and under agitation at 600 rpm. Samples are removed and microarrays are washed 3 times.
# A mix of primary antibodies (Primary Antibody Cocktail; TF Chip MAPK kit, Eppendorf, Germany), each specifically recognizing the activated form of a transcription factor to be detected and diluted in the Primary Antibody Solution (TF Chip MAPK kit, Eppendorf, Germany), is contacted with the microarrays for 1 h at RT, followed by 3 washing steps. Each microarray is then contacted with Cy3-labeled secondary antibodies under indirect light for 45 min at RT, followed by washing.
# Hybridization chambers are removed, and slides are rinsed with Washing Buffer B (TF Chip MAPK kit, Eppendorf, Germany) and dried. A fluorescence detection of signals is performed by scanning slides using a laser confocal scanner “ScanArray” (Packard, USA) at a resolution of 10 μm. Signals are analyzed using the TF Chip MAPK Data analysis software.
# The experiment was performed as described in example 1 with the cells being stimulated for 15 min and 24 h with IFNγ or IFNα at the same concentration (1000 U/ml).
# The assays were performed on the TF Chip MAPK kit and on the DualChip® human RNAi side effect (Eppendorf, Germany) as in example 1. Table 2 presents the ratios for the genes whose values were found quantitative as explained in example 1. However, we investigated further the genes which were found positive for the IFNα response. For these genes, we incorporated into the table the values for the genes determined as quantitative for IFNγ but also the values for two genes, SERPINB2 and IFIT2, which were found qualitative, and the values for 4 other genes for which the ratios were significant when a confidence interval of 90% rather than the normal 95% is considered. These values are presented for sake of completing the information on the comparison between the two treatments and are marked with an asterisk.
# [2] = test system: U937 cells; assay: DualChip human RNAi side effect microarray: gene expression in stimulated U937 cells; type: cell-based; details: for Number of genes exclusively regulated by this interferon: from 89 significant genes
# Source text: The DualChip® human RNAi side effect (Eppendorf, Germany) was used for assay of the changes in the gene expression.
# The microarray contains, in triplicates, capture probes to analyze the expression of 260 human genes. In order to evaluate the entire experiment, several positive and negative controls (for hybridization and detection) as well as special capture probes for normalization are included. The DualChip® consists of two microarrays on one slide that has already been framed with a hybridization frame.
# The instructions provided by the supplier were followed for the hybridization and the analysis of the results.
# [3] = test system: AP1 (c-Jun), STAT1, Elk-1, p53, c-Myc, ATF2, NFATc1 and MEF2 in MCF7 cells; assay: TF Chip MAPK microarray: activated transcription factors in stimulated MCF7 cells; type: cell-based, human
# [4] = test system: MCF7 cells; assay: DualChip human breast cancer microarray: gene expression in stimulated MCF7 cells; type: cell-based; details: 24 h; for Number of genes whose expression level is modified: out of 210
compound,measurement,setting,value
IFNα,Activation of transcription factor STAT1,"[1]; 15 min, vs unstimulated cells",the only TF showing a specific signal in the treated cells
same,Number of genes exclusively regulated by this interferon,"[2]; 24 h, 1000 U/ml",6 genes
"IFNγ: interferon γ, used at 1000 U/ml as stimulus of U937 cells",Activation of transcription factor MEF2,[1],activated in IFNγ stimulated and non stimulated conditions
same,Activation of transcription factor STAT1,"[1]; 15 min, vs unstimulated cells",specifically activated; also recorded: fast activation; also recorded: the only TF showing a specific signal in the treated cells
same,Activation of transcription factor STAT1,[1]; 24 h,disappears after 24 h
same,"Activation of the 7 other transcription factors (AP1 (c-Jun), Elk-1, p53, c-Myc, ATF2, NFATc1, MEF2)",[1]; vs unstimulated cells,"None of the 7 other ones (AP1 (c-Jun), Elk-1, p53, c-Myc, ATF2, NFATc1 and MEF2) were activated"
same,Number of genes affected at the two stimulation times,[2]; 15 min and 24 h,Five
same,Differential expression of genes BAX and BCLX,[2]; 1000 U/ml,not found to be differentially expressed
same,Number of genes whose expression level varies significantly,"[2]; 1000 U/ml, 15 min and 24 h, quantitative analysis, 260 genes on array",81 genes
same,Expression level of gene FOS,"[2]; 1000 U/ml, 24 h",returned to a basal level
same,Number of genes exclusively regulated by this interferon,"[2]; 24 h, 1000 U/ml",62 genes
same,Number of genes specifically affected by a 15 min treatment,[2]; out of 81,4 genes
same,Number of genes specifically modified after a 24 h treatment,[2]; out of 81,72 genes
hydrogen peroxide [H2O2],"Activation state of c-Jun, Elk-1 and STAT1","[3]; MCF7 cells, 200 μM",did not highlight any modification in the activation state
same,"Activation of ATF2, c-Myc, MEF2 and NFATc1","[3]; MCF7 cells, 200 μM, 3 h",suppressed
same,Activation of transcription factor p53,"[3]; MCF7 cells, 200 μM, 3 h and 24 h",activation of p53
same,"Activation of ATF2, c-Myc, MEF2 and NFATc1","[3]; MCF7 cells, 200 μM, 24 h",restored to a basal level
same,"Regulation of genes p53, bcl-x and thrombospondin-1",[4]; 200 μM,not shown experimentally to be regulated
same,Number of apoptotic pathway genes affected (BAG and BAX),"[4]; 200 μM, of 9 on the array",2 genes
same,Number of genes whose expression level is modified,[4]; 200 μM,16 genes
same,"Expression ratio, gene BAG-1","[4]; 200 μM, vs untreated cells",1.65
same,"Expression ratio, gene BAX","[4]; 200 μM, vs untreated cells",1.86
same,"Expression ratio, gene CTSD","[4]; 200 μM, vs untreated cells",1.65
same,"Expression ratio, gene FOXM1","[4]; 200 μM, vs untreated cells",0.55
same,"Expression ratio, gene K-alpha-1","[4]; 200 μM, vs untreated cells",0.63
same,"Expression ratio, gene MCM7","[4]; 200 μM, vs untreated cells",0.57
same,"Expression ratio, gene MDM2","[4]; 200 μM, vs untreated cells",1.73
same,"Expression ratio, gene MKi67","[4]; 200 μM, vs untreated cells",0.56
same,"Expression ratio, gene MYBL2","[4]; 200 μM, vs untreated cells",0.53
same,"Expression ratio, gene Muc1","[4]; 200 μM, vs untreated cells",1.64
same,"Expression ratio, gene NIFU","[4]; 200 μM, vs untreated cells",1.53
same,"Expression ratio, gene ODC","[4]; 200 μM, vs untreated cells",0.61
same,"Expression ratio, gene PPP1CB","[4]; 200 μM, vs untreated cells",0.62
same,"Expression ratio, gene STMN1","[4]; 200 μM, vs untreated cells",0.54
same,"Expression ratio, gene TOB","[4]; 200 μM, vs untreated cells",1.63
same,"Expression ratio, gene p21 (CDKN1A)","[4]; 200 μM, vs untreated cells",3.26
"C[C@]12CC[C@@H]3c4ccc(O)cc4CC[C@H]3[C@@H]1CC[C@@H]2O [β-Estradiol, β-estradiol]","Activation state of c-Jun, ATF2, Elk-1 and STAT1","[3]; MCF7 cells, 1 μM",did not highlight any modification in the activation state
same,Activation of c-Myc,"[3]; MCF7 cells, 1 μM, 24 h, cells confluent",reduced
same,Activation of p53,"[3]; MCF7 cells, 1 μM, 24 h, cells confluent, possibly not specific to the treatment",triggered
same,Activation of c-Myc,"[3]; sub-confluent MCF7 cells, 1 μM, 4 h",fast activation
same,Number of genes whose expression level is modified,[4]; 1 μM,50 genes
